Laboratory results: paper PMC8395767, “Worsening of the Toxic Effects of (±)Cis-4,4′-DMAR Following Its Co-Administration with (±)Trans-4,4′-DMAR: Neuro-Behavioural, Physiological, Immunohistochemical and Metabolic Studies in Mice” (International Journal of Molecular Sciences, 2021)

What was measured:
Format in all cases: in vivo, mice
[1] = tested on: HSP90; test: Immunohistochemistry, frontal cortex: HSP90; settings: vs control
Excerpt: (§1) Following the acute death or the sacrifice of the animals (after 5-h observation period by dislocation of the spine), brains were taken. These were fixed in 4% buffered formalin and then sampled and incorporated into the paraffin (Leica ASP300 processor, Histoline TEC2900 incorporator; Leica Microsystems Srl, Buccinasco, Milano, Italy). Subsequently, the cut (performed with the Leica HistoCore autocut microtome; Leica Microsystems Srl, Buccinasco, Milano, Italy) was designed to create sections with a thickness of 5 µm for each sample.
(§2) On 5-µm-thick paraffined […] sections, we evaluated the expression of a panel of markers: heat shock proteins (HSP27, HSP70, HSP90), SMAC/DIABLO, NF-kB, iNOS, NOX-2, NT, 8-OHDG.
We used a detection system composed of a biotinylated secondary antibody and HRP-conjugated streptavidin (4plus HRP Universal Detection, Biocare Medical). […] In the pictures (sections of the frontal cortex; Figure 3, Figure 4 and Figure 5) to evaluate the variation in the expression of markers (Smac, NOX2, iNOS, 8-OHdG, NT, HSP27, HSP70, HSP90) following treatments, the change in intensity of brown colour (staining of the immunohistochemical technique) in the control and treated tissue was measured. Quantification of Smac, NOX2, iNOS, 8-OHdG, NT, HSP27, HSP70 and HSP90 positive-stained areas was performed by the ImageJ software (imagej.nih.gov/ij/ Accessed date 12 May 2020). […]

[2] = tested on: HSP27; test: Immunohistochemistry, frontal cortex: HSP27
Excerpt: as §1, §2
(§3) We used a detection system composed of a biotinylated secondary antibody and HRP-conjugated streptavidin (4plus HRP Universal Detection, Biocare Medical). 3′-,3Diaminobenzidine (DAB) and H2O2 (Betazoid DAB Chromogen Kit, Biocare Medical, Concord, CA, USA) were used as chromogen/substrate. The subsequent counterstaining with haematoxylin–eosin allowed the visualization of cell morphology and nuclei. Once this procedure was completed, the slides were mounted and observed under optical microscope. In the pictures (sections of the frontal cortex; Figure 3, Figure 4 and Figure 5) to evaluate the variation in the expression of markers (Smac, NOX2, iNOS, 8-OHdG, NT, HSP27, HSP70, HSP90) following treatments, the change in intensity of brown colour (staining of the immunohistochemical technique) in the control and treated tissue was measured. Quantification of Smac, NOX2, iNOS, 8-OHdG, NT, HSP27, HSP70 and HSP90 positive-stained areas was performed by the ImageJ software (imagej.nih.gov/ij/ Accessed date 12 May 2020). […] Positivity was expressed as an extension of the stained analysed area.
Sweating and salivation were expressed as frequency (e.g., % of animals that developed symptoms); psychomotor agitation was expressed as frequency (% of animals) and duration (total time in mins). Core temperature values were expressed as the difference between control temperature (before injection) and temperature following drug administration (Δ°C). Aggressiveness was expressed as frequency (% of animals which become aggressive) and score (number of bites). Convulsions were expressed as frequency (% of animals that developed seizure), episodes (e.g., number of seizure events), latency of first episode (sec.) and duration of each episode (sec.). Lethality was expressed as frequency (% of animals that died during the observation period (5 h) or during the following 24 h). […] Regarding immunohistochemical analysis, positivity was expressed as the extension of stained analysed area. Results were expressed as means ± mean standard error (SEM). […]

[3] = tested on: HSP70; test: Immunohistochemistry, frontal cortex: HSP70
Excerpt: as §1, §2
as §3, with “The subsequent counterstaining with haematoxylin–eosin allowed the visualization of cell morphology and nuclei. Once this procedure was completed, the slides were mounted and observed under optical microscope.” left out
(§4) Sweating and salivation were expressed as frequency (e.g., % of animals that developed symptoms); psychomotor agitation was expressed as frequency (% of animals) and duration (total time in mins). Core temperature values were expressed as the difference between control temperature (before injection) and temperature following drug administration (Δ°C). Aggressiveness was expressed as frequency (% of animals which become aggressive) and score (number of bites). […]

[4] = Excretion studies on urine samples (LC-MS/MS)
Method: To study the possible metabolic interaction between cis and trans isomers, we chose to evaluate urinary excretion and metabolic profile of 4,4′-DMAR, as this allowed us to study and correlate physiological and neuro-behavioural responses in the same individual. For the in vivo studies, three different groups of mice were selected. To the first group, a dose of 10 mg/kg of cis-4,4′-DMAR was administered. To the second group, a dose of 10 mg/kg of both cis and trans-4,4′-DMAR was administered. The third group was selected for the collection of urine blank samples. Urine samples were collected in the range of 0–6 h after 4,4′-DMAR or vehicle were intraperitoneally injected.
Urine samples were treated and analysed through a protocol already used by our group for the analysis of the excretion of stimulant drugs in mice. Briefly, our protocol allowed the conversion of conjugated metabolites (i.e., sulfo- and glucorono-conjugates) to phase I metabolites after two hydrolysis steps. […] The residue was reconstituted with 50 μL of mobile phase and analysed with a targeted LC-MS/MS technique. In details, samples were analysed using an Agilent 1200 series HPLC instrument equipped with a SUPELCO Discovery C18 column (15 cm × 2.1 mm × 5 µm) coupled with an API4000 QqQ mass spectrometer (Sciex, 500 Old Connecticut Path, Framingham, MA, USA). […]

[5] = tested on: 3-nitrotyrosine (NT); test: Immunohistochemistry, frontal cortex: NT; settings: vs control
Excerpt: as §1, §2
We used a detection system composed of a biotinylated secondary antibody and HRP-conjugated streptavidin (4plus HRP Universal Detection, Biocare Medical). 3′-,3Diaminobenzidine (DAB) and H2O2 (Betazoid DAB Chromogen Kit, Biocare Medical, Concord, CA, USA) were used as chromogen/substrate. The subsequent counterstaining with haematoxylin–eosin allowed the visualization of cell morphology and nuclei. Once this procedure was completed, the slides were mounted and observed under optical microscope. In the pictures (sections of the frontal cortex; Figure 3, Figure 4 and Figure 5) to evaluate the variation in the expression of markers (Smac, NOX2, iNOS, 8-OHdG, NT, HSP27, HSP70, HSP90) following treatments, the change in intensity of brown colour (staining of the immunohistochemical technique) in the control and treated tissue was measured. Quantification of Smac, NOX2, iNOS, 8-OHdG, NT, HSP27, HSP70 and HSP90 positive-stained areas was performed by the ImageJ software (imagej.nih.gov/ij/ Accessed date 12 May 2020). One image for each animal of the different experimental groups was processed. Positivity was expressed as an extension of the stained analysed area.
Sweating and salivation were expressed as frequency (e.g., % of animals that developed symptoms); psychomotor agitation was expressed as frequency (% of animals) and duration (total time in mins). Core temperature values were expressed as the difference between control temperature (before injection) and temperature following drug administration (Δ°C). Aggressiveness was expressed as frequency (% of animals which become aggressive) and score (number of bites). Convulsions were expressed as frequency (% of animals that developed seizure), episodes (e.g., number of seizure events), latency of first episode (sec.) and duration of each episode (sec.). Lethality was expressed as frequency (% of animals that died during the observation period (5 h) or during the following 24 h). The statistical analysis of the effects of the individual substances in different concentrations were performed using a one-way ANOVA followed by a Bonferroni test for multiple comparisons. A Student’s t-test was used to determine statistical significance (p < 0.05) between two groups. Regarding immunohistochemical analysis, positivity was expressed as the extension of stained analysed area. Results were expressed as means ± mean standard error (SEM). Data were analysed by one-way analysis of variance (ANOVA), followed by Tukey’s post-hoc test. For all tests, a p value of <0.05 was considered statistically significant. All statistical analyses were performed using GraphPad Prism 8 software for Windows (La Jolla, CA, USA).

[6] = tested on: 8-OHdG; test: Immunohistochemistry, frontal cortex: 8-OHdG; settings: for Immunoreactivity of 8-OHdG in the frontal cortex: 30 and 60 mg/kg, vs control
Excerpt: as §1, §2
as §3, with “The subsequent counterstaining with haematoxylin–eosin allowed the visualization of cell morphology and nuclei. Once this procedure was completed, the slides were mounted and observed under optical microscope.” left out
as §4

[7] = tested on: iNOS; test: Immunohistochemistry, frontal cortex: iNOS
Excerpt: as §1, §2
as §3, with “The subsequent counterstaining with haematoxylin–eosin allowed the visualization of cell morphology and nuclei. Once this procedure was completed, the slides were mounted and observed under optical microscope.” left out
as §4

Cc1ccc(C2OC(N)=NC2C)cc1 (stereo not drawn) [cis-4,4’-DMAR, 4-methyl-5-(4-methylphenyl)-4,5-dihydrooxazol-2-amine]
Immunoreactivity of HSP90 in the frontal cortex ([1]; 10 and 30 mg/kg): reduced
Immunoreactivity of HSP27 in the frontal cortex ([2]; 10 mg/kg alone): ineffective
Immunoreactivity of HSP27 in the frontal cortex ([2]; 30 and 60 mg/kg, vs control): increased
Immunoreactivity of HSP27 in the frontal cortex ([2]; 30 and 60 mg/kg, vs control, listed as (±)cis): overexpressed
Immunoreactivity of HSP70 in the frontal cortex ([3]; 10 mg/kg alone): ineffective
Immunoreactivity of HSP70 in the frontal cortex ([3]; 30 and 60 mg/kg, vs control): increased
Urinary excretion of the parent compound (normalised to the sum of 4,4′-DMAR and its metabolites, Figure 7B) ([4]; co-administered with (±)trans-4,4′-DMAR 10 mg/kg, vs cis alone): increase
Immunoreactivity of 3-nitrotyrosine (NT) in the frontal cortex ([5]; 10 mg/kg): reduced
Immunoreactivity of 3-nitrotyrosine (NT) in the frontal cortex ([5]; 30 mg/kg): increased
Immunoreactivity of 3-nitrotyrosine (NT) in the frontal cortex ([5]; 30 mg/kg, listed as (±)cis): statistically significant increase
Immunoreactivity of 3-nitrotyrosine (NT) in the frontal cortex ([5]; 60 mg/kg): did not affect
Immunoreactivity of 8-OHdG in the frontal cortex [6]: increased
Immunoreactivity of 8-OHdG in the frontal cortex ([6]; listed as (±)cis): overexpressed
Immunoreactivity of iNOS in the frontal cortex ([7]; 60 mg/kg, vs control): increased
Immunoreactivity of iNOS in the frontal cortex ([7]; 60 mg/kg, vs control, listed as (±)cis): large increase

Cc1ccc(C2OC(N)=NC2C)cc1 (stereo not drawn) [trans-4,4’-DMAR, 4-methyl-5-(4-methylphenyl)-4,5-dihydrooxazol-2-amine]
Expression of HSP90 in the frontal cortex ([1]; 30 mg/kg alone): reduced
Immunoreactivity of HSP27 in the frontal cortex ([2]; 30 mg/kg alone): ineffective
Immunoreactivity of HSP70 in the frontal cortex ([3]; 30 mg/kg alone): ineffective
Phase I/II metabolism ([4]; mice urine): did not exhibit
Immunoreactivity of 3-nitrotyrosine (NT) in the frontal cortex ([5]; 30 mg/kg): ineffective
Expression of 8-OHdG in the frontal cortex ([6]; 30 mg/kg alone): ineffective
Immunoreactivity of iNOS in the frontal cortex ([7]; 30 mg/kg alone): ineffective
